The values that follow come from US4732980A, “Intermediates for 3-amino-1,2,5-thiadiazole-1-oxides” (Smith Kline & French Laboratories Limited, priority 1985, dated 1988).

Each structure is given as a SMILES string.

The target of assay [1] is T1, histamine H2-receptors (Rattus norvegicus, UniProt P25102).
T1 construct: secretion of gastric acid from the lumen-perfused stomachs of rats anaesthetised with urethane; from tissue; host or cells: stomach of urethane-anaesthetised rats (in vivo, lumen-perfused)
T1 sequence (P25102 whole entry, the tested form may be a part): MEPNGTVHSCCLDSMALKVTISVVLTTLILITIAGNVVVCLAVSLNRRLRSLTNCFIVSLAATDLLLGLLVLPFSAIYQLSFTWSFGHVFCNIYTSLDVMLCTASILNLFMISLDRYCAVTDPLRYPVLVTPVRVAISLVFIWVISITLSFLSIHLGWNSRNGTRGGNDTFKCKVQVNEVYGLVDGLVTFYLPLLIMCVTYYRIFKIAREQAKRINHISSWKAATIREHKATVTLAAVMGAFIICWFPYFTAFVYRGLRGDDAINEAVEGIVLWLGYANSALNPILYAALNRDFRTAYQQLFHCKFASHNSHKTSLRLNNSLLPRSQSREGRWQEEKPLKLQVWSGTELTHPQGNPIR
Put plainly: standard lumen-perfused rat test (inhibition of histamine-stimulated secretion of gastric acid from the lumen-perfused stomachs of rats anaesthetised with urethane). The assay is classed as in vivo. From the text: These are actions of histamine which, according to Ash and Schild, Brit. J. Pharmac. Chemother. 27 247 (1966), are not mediated by histamine H1 -receptors.
(§1) The measurement of inhibition of histamine-stimulated secretion of gastric acid from the lumen-perfused stomachs of rats anaesthetised with urethane, and the measurement of inhibition of histamine-induced tachycardia in the isolated guinea pig right atrium, are detailed in U.S. Pat. No. 4,385,058.
(§2) To illustrate the level of activity of these compounds the following data were obtained in the standard guinea pig atrium test and the standard lumen-perfused rat test (for example see EP No. -A-49173).

The target of assay [2] is T2, histamine H2-receptors (Cavia porcellus, UniProt P47747).
T2 construct: from tissue; host or cells: isolated guinea pig right atrium
T2 sequence (P47747 whole entry): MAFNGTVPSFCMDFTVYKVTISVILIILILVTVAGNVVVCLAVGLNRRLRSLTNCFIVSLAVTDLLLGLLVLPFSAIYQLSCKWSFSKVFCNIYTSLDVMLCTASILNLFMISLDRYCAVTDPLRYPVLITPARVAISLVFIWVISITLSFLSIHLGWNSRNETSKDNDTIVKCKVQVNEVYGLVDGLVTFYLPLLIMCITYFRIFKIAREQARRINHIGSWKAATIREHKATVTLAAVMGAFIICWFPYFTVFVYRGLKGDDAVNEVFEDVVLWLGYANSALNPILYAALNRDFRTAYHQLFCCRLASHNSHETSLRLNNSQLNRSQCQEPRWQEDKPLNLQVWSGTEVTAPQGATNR
Put plainly: standard guinea pig atrium test (inhibition of histamine-induced tachycardia in the isolated guinea pig right atrium). In kind it is cell-based. As to conditions: for Kb: isolated guinea pig right atrium, read-out: pA2 (guinea-pig atrium) (converted); for slope of response (figure in brackets with pA2, guinea-pig atrium): slope belonging to pA2, guinea-pig atrium.
Source text: as §1, §2

Molecule `Nc1n[s+]([O-])nc1NCCCCC#CCN1CCCCC1` (stereo not drawn) [Example 1, 3-Amino-4-[7-piperidinohept-5-ynylamino]-1,2,5-thiadiazole-1-oxide] gave an ED50 at histamine H2-receptors [1] of 1.1 mg/kg. On histamine H2-receptors [2], the Kb is 3020 nM and the “slope of response (figure in brackets with pA2, guinea-pig atrium)” value (“slope of response” below) is 0.95.
Take `CN(C)CC#CCCCCNc1n[s+]([O-])nc1N` (stereo not drawn) [Example 2, 3-Amino-4-[7-dimethylaminohept-5-ynylamino]-1,2,5--thiadiazole-1-oxide]: the ED50 at histamine H2-receptors [1] worked out at 0.16 mg/kg. Besides, on histamine H2-receptors [2], the Kb was 646 nM and the “slope of response” value came out at 0.61.
For `CN(C)CC#CCCCCNC1=NS(=O)(=O)N=C1N` [Example 3, 3-Amino-4-[7-dimethylaminohept-5-ynylamino]-1,2,5-thiadiazole-1,1-dioxide] the same measures were 0.1 mg/kg, 151 nM and 0.50.
Turning to `CN(C)CC#CCCCNC1=NS(=O)(=O)N=C1N` [Example 4, 3-Amino-4-[6-dimethylaminohex-4-ynylamino]-1,2,5-thiadiazole-1,1-dioxide], at histamine H2-receptors [1], the ED50 was determined as 0.027 mg/kg. Moreover, at histamine H2-receptors [2], the Kb is 100 nM and the “slope of response” value is listed as 0.88.
